Source: paper PMC11535186, “Exploring the Anti-Inflammatory Potential of Ajuga integrifolia Leaves Extract: In Vitro Dual Inhibition of Cyclooxygenase and Lipoxygenase Enzymes” (Advances in Pharmacological and Pharmaceutical Sciences, 2024)

Biological target: 5-LOX (Glycine max, UniProt P08170)
Experiment: 5-LOX inhibitory assay (linoleic acid substrate, 234 nm)
Assay type: biochemical
Details: read-out: % inhibition 5-LOX
Experimental: The inhibition of LOX was evaluated according to the method described by Malterud with slight modifications. A 100 μL enzyme solution was prepared in boric acid buffer (0.2 M; pH 9.0). To assess the inhibitory effect, 25 μL of each test extract (20, 40, 60, 80, and 100 μg/mL) was added to the enzyme solution. The mixture was then incubated at room temperature for 3 min. […] IC50 values were calculated by regression analysis using Microsoft Excel involving five concentrations. The percentage inhibition of enzyme activity and IC50 values are presented as the mean values ± SD.

Sequence of 5-LOX (P08170 whole entry): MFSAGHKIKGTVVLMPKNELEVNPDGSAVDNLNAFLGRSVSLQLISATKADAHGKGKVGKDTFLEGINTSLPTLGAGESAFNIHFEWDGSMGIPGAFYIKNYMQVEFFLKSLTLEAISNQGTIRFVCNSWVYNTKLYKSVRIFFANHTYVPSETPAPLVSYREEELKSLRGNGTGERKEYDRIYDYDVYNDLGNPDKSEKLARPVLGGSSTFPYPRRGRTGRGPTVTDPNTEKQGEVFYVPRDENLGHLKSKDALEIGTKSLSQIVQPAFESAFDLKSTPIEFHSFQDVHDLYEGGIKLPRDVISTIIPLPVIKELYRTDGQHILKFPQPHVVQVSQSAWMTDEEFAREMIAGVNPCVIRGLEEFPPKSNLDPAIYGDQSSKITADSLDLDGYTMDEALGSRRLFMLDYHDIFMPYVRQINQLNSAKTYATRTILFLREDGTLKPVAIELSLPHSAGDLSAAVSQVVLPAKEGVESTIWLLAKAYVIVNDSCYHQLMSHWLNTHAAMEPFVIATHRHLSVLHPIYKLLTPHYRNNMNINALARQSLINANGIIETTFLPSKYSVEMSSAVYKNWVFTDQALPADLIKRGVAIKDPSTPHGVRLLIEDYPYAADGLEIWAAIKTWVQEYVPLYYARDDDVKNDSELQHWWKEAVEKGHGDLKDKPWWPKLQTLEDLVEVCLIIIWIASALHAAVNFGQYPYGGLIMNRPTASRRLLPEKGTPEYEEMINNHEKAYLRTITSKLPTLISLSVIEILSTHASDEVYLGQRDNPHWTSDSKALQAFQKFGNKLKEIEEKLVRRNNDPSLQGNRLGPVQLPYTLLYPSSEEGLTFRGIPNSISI

`CC(c1cc2ccccc2s1)N(O)C(N)=O` (centres unmarked) [Zileuton] showed an inhibition at 20 µg/mL of 26.1%, an inhibition at 40 µg/mL of 47% and an inhibition at 60 µg/mL of 51.9%. For the same compound, the inhibition at 80 µg/mL was 64.2% and the inhibition at 100 µg/mL was 70.4%.
